Experimental data: ChEMBL document CHEMBL3091308, “Bisindole alkaloids with neural anti-inflammatory activity from Gelsemium elegans” (J Nat Prod, 2013)
One block for each compound: values may come before it.

What was measured:
[1] = (§1) Antiinflammatory activity in […] cells assessed as inhibition of LPS-induced NO production measured 24 hrs post LPS-challenge by spectrophotometry; assay type: functional, cell-based; conditions: BV-2, 24 h
A549 = test: Cytotoxicity against human A549 cells at 10 uM after 72 hrs by MTT assay; assay type: cell-based; conditions: a549, 72 h
A2780 = test: Cytotoxicity against human A2780 cells at 10 uM after 72 hrs by MTT assay; assay type: cell-based; conditions: a2780, 72 h
[2] = Cytotoxicity against human BGC823 cells at 10 uM after 72 hrs by MTT assay; assay type: cell-based; conditions: bgc-823, 72 h
[3] = Cytotoxicity against human HCT8 cells at 10 uM after 72 hrs by MTT assay; assay type: cell-based; conditions: hct-8, 72 h
[4] = Cytotoxicity against human Bel7402 cells at 10 uM after 72 hrs by MTT assay; assay type: cell-based; conditions: bel-7402, 72 h
[5] = Cytotoxicity against […] cells at 50 uM after 72 hrs by MTT assay; assay type: cell-based; conditions: bv-2, 72 h
RAW = test: Cytotoxicity against mouse RAW cells at 50 uM after 72 hrs by MTT assay; assay type: cell-based
BV-2 = test: as §1; assay type: functional, cell-based

IC50 [1]: 3.9 µM
Compound: COc1cc(/C=C/C(=O)CC(=O)/C=C/c2ccc(O)c(OC)c2)ccc1O [CURCUMIN]

Compound: CON1C(=O)[C@@]2(C[C@@H]3N=C([C@@](C)(O)C[C@@H](C)[C@@]45ON4[C@H]4C[C@@]6(C(=O)N(OC)c7ccccc76)[C@H]6C[C@@H]5[C@@H]4CO6)[C@@H]4C[C@H]2OC[C@H]34)c2ccccc21 (some centres undefined)
Activity (A549): Non-toxic
Activity (A2780): Non-toxic
Activity [2]: Non-toxic
Activity [3]: Non-toxic
Activity [4]: Non-toxic
Activity [5]: Non-toxic
Activity (RAW): Non-toxic

Compound: C/C=C1\CN2C(=O)[C@]3(c4cc(-c5cc([C@@]67C[C@H]8[C@H]9CO[C@@H]6C[C@H]9/C(=C/C)CN8C7=O)c(N)cc5OC)c(OC)cc4N)C[C@H]2[C@H]2CO[C@@H]3C[C@@H]12
Activity (A549): Non-toxic
Activity (A2780): Non-toxic
Activity [2]: Non-toxic
Activity [3]: Non-toxic
Activity [4]: Non-toxic
Activity [5]: Non-toxic
Activity (RAW): Non-toxic

Compound: CON1C(=O)[C@@]2(C[C@@H]3N=C([C@](C)(O)C[C@@H](C)[C@@]45ON4[C@H]4C[C@@]6(C(=O)N(OC)c7ccccc76)[C@H]6C[C@@H]5[C@@H]4CO6)[C@@H]4C[C@H]2OC[C@H]34)c2ccccc21 (some centres undefined)
IC50 [1]: 10.2 µM
inhibition (BV-2): Dose-dependent effect
Activity (A549): Non-toxic
Activity (A2780): Non-toxic
Activity [2]: Non-toxic
Activity [3]: Non-toxic
Activity [4]: Non-toxic
Activity [5]: Non-toxic
Activity (RAW): Non-toxic
